Data reported in PubChem BioAssay AID330 (DTP/NCI, 2004).
Values joined by “and” are separate entries in the source; they are usually repeats but may differ in a detail not shown here. Equal entries are not always repeated. Inconclusive results and toxic doses are left out.

Tested on: P388 leukemia ip, CD2F1 mice, survival T/C
Test: NCI In Vivo Anticancer Drug Screen. Data for tumor model P388 Leukemia (intraperitoneal) in CD2F1 (CDF1) mice
Details: endpoint: median survival time, higher = longer survival
Method in brief: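 Mice carrying the transplanted tumor received test compound or vehicle. Survival was recorded in each group, and the value is the treated-group measurement divided by that of the vehicle-treated control group.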

[1] = dose: 50.0 mg/kg/injection, schedule: Q01DX005 (ip), vehicle: saline with Tween-80
[2] = dose: 100.0 mg/kg/injection, schedule: Q01DX005 (ip), vehicle: saline with Tween-80
[3] = dose: 60.0 mg/kg/injection, schedule: Q01DX005 (ip), vehicle: saline with Tween-80
[4] = dose: 120.0 mg/kg/injection, schedule: Q01DX005 (ip), vehicle: saline with Tween-80
[5] = dose: 240.0 mg/kg/injection, schedule: Q01DX005 (ip), vehicle: saline with Tween-80
[6] = dose: 50.0 mg/kg/injection, schedule: Q01DX009 (ip), vehicle: saline with Tween-80
[7] = dose: 100.0 mg/kg/injection, schedule: Q01DX009 (ip), vehicle: saline with Tween-80
[8] = dose: 200.0 mg/kg/injection, schedule: Q01DX009 (ip), vehicle: saline with Tween-80
[9] = dose: 50.0 mg/kg/injection, schedule: Q01DX009 (ip), vehicle: saline
[10] = dose: 100.0 mg/kg/injection, schedule: Q01DX009 (ip), vehicle: saline
[11] = dose: 200.0 mg/kg/injection, schedule: Q01DX009 (ip), vehicle: saline
[12] = dose: 50.0 mg/kg/injection, schedule: Q01DX005 (ip), vehicle: Klucel (hydroxypropylcellulose) (HPC)
[13] = dose: 100.0 mg/kg/injection, schedule: Q01DX005 (ip), vehicle: Klucel (hydroxypropylcellulose) (HPC)
[14] = dose: 200.0 mg/kg/injection, schedule: Q01DX005 (ip), vehicle: Klucel (hydroxypropylcellulose) (HPC)
[15] = dose: 100.0 mg/kg/injection, schedule: Q01DX009 (ip), vehicle: Klucel (hydroxypropylcellulose) (HPC)
[16] = dose: 200.0 mg/kg/injection, schedule: Q01DX009 (ip), vehicle: Klucel (hydroxypropylcellulose) (HPC)
[17] = dose: 50.0 mg/kg/injection, schedule: Q01DX005 (ip), vehicle: saline
[18] = dose: 100.0 mg/kg/injection, schedule: Q01DX005 (ip), vehicle: saline

## CCN(CC)CCNc1ccc(CO)c2oc3ccc(O)cc3c(=O)c12
[1]
  T/C: 171 % of control and 189 % of control
[2]
  T/C: 214 % of control and 217 % of control

## CC(=O)Nc1ccccc1OC(=O)NC(C)(C)C
[3]
  T/C: 97 % of control
[4]
  T/C: 100 % of control
[5]
  T/C: 90 % of control

## CCCCCc1cc(/C=C2/N=C(c3ccc[nH]3)C=C2OC)[nH]c1C
dose: 1.5 mg/kg/injection, schedule: Q01DX009 (ip), vehicle: saline
  T/C: 114 % of control
dose: 3.0 mg/kg/injection, schedule: Q01DX009 (ip), vehicle: saline
  T/C: 120 % of control and 123 % of control
dose: 6.0 mg/kg/injection, schedule: Q01DX009 (ip), vehicle: saline
  T/C: 107 % of control

## COc1cc2c[n+](C)c3c(c2cc1OC)Cc1c-3ccc(O)c1OC
dose: 100.0 mg/kg/injection, schedule: Q01DX001 (ip), vehicle: Klucel (hydroxypropylcellulose) (HPC)
  T/C: 116 % of control

## CSc1nnc(C2CCC(=O)N2Cc2ccccc2)o1 (stereo not drawn)
dose: 60.0 mg/kg/injection, schedule: Q01DX005 (ip), vehicle: saline
  T/C: 105 % of control
dose: 120.0 mg/kg/injection, schedule: Q01DX005 (ip), vehicle: saline
  T/C: 102 % of control
dose: 240.0 mg/kg/injection, schedule: Q01DX005 (ip), vehicle: saline
  T/C: 104 % of control

## O=C(N=C=S)c1ccc(Cl)c(Cl)c1
dose: 25.0 mg/kg/injection, schedule: Q01DX009 (ip), vehicle: saline with Tween-80
  T/C: 94 % of control
[6]
  T/C: 95 % of control
[7]
  T/C: 95 % of control
[8]
  T/C: 103 % of control

## COc1cc(-c2ccc(Nc3ccccc3C(=O)O)c(OC)c2)ccc1Nc1ccccc1C(=O)O
[9]
  T/C: 105 % of control
[10]
  T/C: 100 % of control and 104 % of control and 109 % of control
[11]
  T/C: 110 % of control
dose: 400.0 mg/kg/injection, schedule: Q01DX009 (ip), vehicle: saline
  T/C: 117 % of control and 124 % of control and 86 % of control

## CN(C)C(=S)NCc1ccccc1
dose: 100.0 mg/kg/injection, schedule: Q04DX003 (ip), vehicle: saline with Tween-80
  T/C: 100 % of control
dose: 200.0 mg/kg/injection, schedule: Q04DX003 (ip), vehicle: saline with Tween-80
  T/C: 100 % of control

## CC(=O)c1c(O)cc2c(c1O)C1CC(C)(CCC1=C(C)C)O2 (stereo not drawn)
dose: 6.25 mg/kg/injection, schedule: Q01DX009 (ip), vehicle: saline
  T/C: 105 % of control
dose: 12.5 mg/kg/injection, schedule: Q01DX009 (ip), vehicle: saline
  T/C: 105 % of control
dose: 25.0 mg/kg/injection, schedule: Q01DX009 (ip), vehicle: saline
  T/C: 107 % of control
[10]
  T/C: 90 % of control
[11]
  T/C: 89 % of control

## CCCCC(=O)N/N=C/c1ccc([N+](=O)[O-])s1
[6]
  T/C: 95 % of control
[7]
  T/C: 99 % of control
[8]
  T/C: 101 % of control

## CCCCCCCCCCCCCCCCCC(=O)CS(C)(=O)=O
dose: 50.0 mg/kg/injection, schedule: Q01DX009 (ip), vehicle: suspension in saline
  T/C: 100 % of control
dose: 100.0 mg/kg/injection, schedule: Q01DX009 (ip), vehicle: suspension in saline
  T/C: 100 % of control
dose: 200.0 mg/kg/injection, schedule: Q01DX009 (ip), vehicle: suspension in saline
  T/C: 97 % of control

## O=C1CC2COc3ccccc3C2=NN1c1ccccc1 (stereo not drawn)
[3]
  T/C: 105 % of control
[4]
  T/C: 94 % of control
[5]
  T/C: 91 % of control

## CSC(=S)n1nc(C)c(N=Nc2ccc(Br)cc2)c1C
dose: 100.0 mg/kg/injection, schedule: Q04DX002 (ip), vehicle: Klucel (hydroxypropylcellulose) (HPC)
  T/C: 107 % of control
dose: 200.0 mg/kg/injection, schedule: Q04DX002 (ip), vehicle: Klucel (hydroxypropylcellulose) (HPC)
  T/C: 103 % of control
dose: 400.0 mg/kg/injection, schedule: Q04DX002 (ip), vehicle: Klucel (hydroxypropylcellulose) (HPC)
  T/C: 103 % of control

## O=C(O)c1[nH]c(=O)[nH]c(=O)c1CO
dose: 6.25 mg/kg/injection, schedule: Q01DX009 (ip), vehicle: distilled water + Tween-80
  T/C: 99 % of control
dose: 12.5 mg/kg/injection, schedule: Q01DX009 (ip), vehicle: distilled water + Tween-80
  T/C: 100 % of control
dose: 25.0 mg/kg/injection, schedule: Q01DX009 (ip), vehicle: distilled water + Tween-80
  T/C: 103 % of control
dose: 50.0 mg/kg/injection, schedule: Q01DX009 (ip), vehicle: distilled water + Tween-80
  T/C: 110 % of control
dose: 100.0 mg/kg/injection, schedule: Q01DX009 (ip), vehicle: distilled water + Tween-80
  T/C: 100 % of control
dose: 200.0 mg/kg/injection, schedule: Q01DX009 (ip), vehicle: distilled water + Tween-80
  T/C: 95 % of control
dose: 400.0 mg/kg/injection, schedule: Q01DX009 (ip), vehicle: distilled water + Tween-80
  T/C: 104 % of control

## NC(=O)c1c(-c2ccccc2)cn2c(C(=O)O)ccnc12
[3]
  T/C: 98 % of control
[4]
  T/C: 98 % of control
[5]
  T/C: 102 % of control

## NS(=O)(=O)c1ccc(NC(=O)c2cccnc2Nc2cccc(Cl)c2)cc1
[3]
  T/C: 103 % of control
[4]
  T/C: 102 % of control
[5]
  T/C: 101 % of control

## [Cl][Rh][Cl].[NH-]c1nc(-c2ccccc2)cs1.[NH-]c1nc(-c2ccccc2)cs1.[NH-]c1nc(-c2ccccc2)cs1.[NH-]c1nc(-c2ccccc2)cs1
dose: 100.0 mg/kg/injection, schedule: Q01DX001 (ip), vehicle: DMSO
  T/C: 97 % of control
dose: 200.0 mg/kg/injection, schedule: Q01DX001 (ip), vehicle: DMSO
  T/C: 94 % of control
dose: 400.0 mg/kg/injection, schedule: Q01DX001 (ip), vehicle: DMSO
  T/C: 98 % of control

## C[N+]1(Cc2ccc(C(N)=O)cc2)CCC(CCC2CC[N+](C)(Cc3ccc(C(N)=O)cc3)CC2)CC1 (stereo not drawn)
dose: 0.78 mg/kg/injection, schedule: Q01DX005 (ip), vehicle: saline with Tween-80
  T/C: 93 % of control
dose: 1.56 mg/kg/injection, schedule: Q01DX005 (ip), vehicle: saline with Tween-80
  T/C: 101 % of control
dose: 3.13 mg/kg/injection, schedule: Q01DX005 (ip), vehicle: saline with Tween-80
  T/C: 90 % of control

## CCOc1ccc2c(=O)c(C(=O)O)c[nH]c2c1
[9]
  T/C: 107 % of control
[10]
  T/C: 107 % of control
[11]
  T/C: 108 % of control

## CC(C)CC(NC(=O)CNC(=O)/C=C/c1ccco1)C(N)=O (stereo not drawn)
[1]
  T/C: 106 % of control
[2]
  T/C: 102 % of control
dose: 200.0 mg/kg/injection, schedule: Q01DX005 (ip), vehicle: saline with Tween-80
  T/C: 90 % of control

## FC(F)(F)S.[Hg]
dose: 2.5 mg/kg/injection, schedule: Q04DX003 (ip), vehicle: saline
  T/C: 95 % of control
dose: 5.0 mg/kg/injection, schedule: Q04DX003 (ip), vehicle: saline
  T/C: 100 % of control
dose: 10.0 mg/kg/injection, schedule: Q04DX003 (ip), vehicle: saline
  T/C: 95 % of control

## C[N+](C)(C)c1ccc2c(c1)CCC/C2=N\N
dose: 1.56 mg/kg/injection, schedule: Q04DX003 (ip), vehicle: saline
  T/C: 100 % of control
dose: 3.13 mg/kg/injection, schedule: Q04DX003 (ip), vehicle: saline
  T/C: 100 % of control
dose: 6.25 mg/kg/injection, schedule: Q04DX003 (ip), vehicle: saline
  T/C: 97 % of control

## COc1ccc2c(C)cc(N/N=C/c3cccc(C)n3)nc2c1
[12]
  T/C: 98 % of control and 104 % of control and 93 % of control
[13]
  T/C: 105 % of control and 109 % of control and 110 % of control
[14]
  T/C: 104 % of control and 116 % of control and 124 % of control

## CC(/C=C/c1ccccc1)=N\Nc1c(F)c(F)c(F)c(F)c1F
dose: 50.0 mg/kg/injection, schedule: Q01DX009 (ip), vehicle: Klucel (hydroxypropylcellulose) (HPC)
  T/C: 103 % of control
[15]
  T/C: 102 % of control
[16]
  T/C: 100 % of control

## CCN(CC)CCNc1ncnc2[nH]ncc12
[17]
  T/C: 106 % of control
[18]
  T/C: 101 % of control

## CCCCS(=N)(=O)CCC(N)P(=O)(O)O (stereo not drawn)
[17]
  T/C: 93 % of control
[18]
  T/C: 100 % of control
dose: 200.0 mg/kg/injection, schedule: Q01DX005 (ip), vehicle: saline
  T/C: 95 % of control

## Cc1ccc(S(=O)(=O)NC(CC(=O)OCc2ccccc2)C(=O)OCc2ccccc2)cc1 (stereo not drawn)
[6]
  T/C: 101 % of control
[7]
  T/C: 86 % of control
[8]
  T/C: 90 % of control

## CCOC(=O)Cc1ccccn1
[15]
  T/C: 109 % of control
[16]
  T/C: 110 % of control
dose: 400.0 mg/kg/injection, schedule: Q01DX009 (ip), vehicle: Klucel (hydroxypropylcellulose) (HPC)
  T/C: 119 % of control

## CCC(C)n1c(=O)cc(C)[nH]c1=O (stereo not drawn)
[9]
  T/C: 101 % of control
[10]
  T/C: 98 % of control
[11]
  T/C: 104 % of control

## COc1ccccc1N=C(C)C1C(=O)c2ccccc2C1=O
[12]
  T/C: 104 % of control
[13]
  T/C: 104 % of control
[14]
  T/C: 100 % of control
